pKi: −log10 of the molar value. Values belong to the compound of their own block, whether it stands above or below them.
Experiments:
[1] = biological target: Thymidylate synthase (Homo sapiens, UniProt P04818)
Description: Inhibition of human thymidylate synthase A

[2] = biological target: Thymidylate synthase (Escherichia coli K-12, UniProt P0A884); assay: Inhibition of Escherichia coli thymidylate synthase A
[3] = biological target: T1, Dihydrofolate reductase (Homo sapiens, UniProt P00374); assay: Inhibition of human DHFR
T1 sequence (P00374 whole entry): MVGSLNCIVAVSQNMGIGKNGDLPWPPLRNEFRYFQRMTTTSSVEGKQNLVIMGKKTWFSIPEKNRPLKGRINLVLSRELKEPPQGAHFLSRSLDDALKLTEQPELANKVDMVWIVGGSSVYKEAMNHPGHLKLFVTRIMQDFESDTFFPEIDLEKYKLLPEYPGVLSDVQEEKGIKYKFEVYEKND

Thymidylate synthase (Escherichia coli K-12, UniProt P0A884), sequence (P0A884 whole entry): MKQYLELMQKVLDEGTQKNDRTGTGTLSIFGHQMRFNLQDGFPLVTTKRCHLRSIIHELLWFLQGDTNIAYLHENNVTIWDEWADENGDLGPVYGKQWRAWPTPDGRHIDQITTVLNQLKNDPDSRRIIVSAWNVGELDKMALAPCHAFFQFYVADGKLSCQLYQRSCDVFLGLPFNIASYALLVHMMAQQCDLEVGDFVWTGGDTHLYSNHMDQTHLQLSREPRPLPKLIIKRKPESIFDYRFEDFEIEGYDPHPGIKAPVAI
Thymidylate synthase (Homo sapiens, UniProt P04818), sequence (P04818 whole entry): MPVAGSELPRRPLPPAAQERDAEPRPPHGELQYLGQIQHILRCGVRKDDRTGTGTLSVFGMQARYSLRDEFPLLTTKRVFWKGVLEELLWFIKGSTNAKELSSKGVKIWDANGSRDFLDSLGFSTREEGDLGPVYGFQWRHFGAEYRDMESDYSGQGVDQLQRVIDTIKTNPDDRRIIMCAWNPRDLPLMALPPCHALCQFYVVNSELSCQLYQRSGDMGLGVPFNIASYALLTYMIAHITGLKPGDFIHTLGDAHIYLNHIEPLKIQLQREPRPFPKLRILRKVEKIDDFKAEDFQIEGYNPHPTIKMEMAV

pKi [1]: 4.33 | pKi [2]: < 3.52
SMILES: O=C1OCc2cccc3cccc1c23

pKi [1]: < 3.51 | pKi [2]: < 3.53
SMILES: N#CC(C#N)=c1c(=O)c2cccc3cccc1c32

pKi [2]: 5.72
SMILES: Cn1cc(-c2ccc(S(=O)(=O)Nc3cc4c5c(cccc5c3)C(=O)OC4=O)s2)cc1C(F)(F)F

pKi [1]: < 4.01 | pKi [2]: < 3.99
SMILES: O=C1C(=O)c2ccc(Oc3ccc([N+](=O)[O-])cc3)c3cccc1c23

pKi [1]: < 3.51 | pKi [2]: < 3.53
SMILES: O=C1/C(=N/c2ccccc2)c2cccc3cccc1c23

pKi [1]: < 3.51 | pKi [2]: < 3.53
SMILES: O=C1OC(c2ccccc2)(c2ccccc2)c2cccc3cccc1c23

pKi [2]: 3.98
SMILES: O=C1OC(=O)c2ccc(Cl)c3cccc1c23

pKi [1]: < 3.08 | pKi [2]: < 3.11
SMILES: O=C1OC(=O)c2ccc(S(=O)(=O)O)c3cccc1c23

pKi [1]: < 3.32 | pKi [2]: < 3.35
SMILES: O=C1OC(=O)c2ccc(SCCO)c3cccc1c23

pKi [2]: < 3.23
SMILES: CCOC(=O)CSc1ccc2c3c(cccc13)C(=O)OC2=O

pKi [1]: < 3.80 | pKi [2]: < 3.82
SMILES: Nc1ccc2c3c(cccc13)C(=O)OC2=O

pKi [1]: < 3.69 | pKi [2]: < 3.71
SMILES: O=C1OC(=O)c2cc([N+](=O)[O-])cc3cccc1c23

pKi [1]: < 3.39 | pKi [2]: 5.17
SMILES: Nc1cc2c3c(cccc3c1)C(=O)OC2=O

pKi [3]: < 3.96 | pKi [2]: 5.14
SMILES: O=C(Nc1cc2c3c(cccc3c1)C(=O)OC2=O)c1cccc([N+](=O)[O-])c1

pKi [2]: 4.77
SMILES: O=C(Nc1cc2c3c(cccc3c1)C(=O)OC2=O)c1ccc([N+](=O)[O-])cc1

pKi [1]: < 3.69 | pKi [2]: 5.19
SMILES: O=C(Nc1cc2c3c(cccc3c1)C(=O)OC2=O)c1ccc(C(F)(F)F)cc1

pKi [2]: 5.15
SMILES: COC(=O)CCC(=O)Nc1cc2c3c(cccc3c1)C(=O)OC2=O

pKi [2]: 5.38
SMILES: O=C1OC(=O)c2cc(NS(=O)(=O)c3ccccc3)cc3cccc1c23

pKi [2]: 5.54
SMILES: O=C1OC(=O)c2cc(NS(=O)(=O)c3cccc4cccnc34)cc3cccc1c23

pKi [2]: 6.05
SMILES: O=C1OC(=O)c2cc(NS(=O)(=O)c3cccc4nsnc34)cc3cccc1c23

pKi [1]: < 3.21 | pKi [2]: 4.49
SMILES: O=C(/C=C/c1ccccc1Cl)Nc1cc2c3c(cccc3c1)C(=O)OC2=O

pKi [1]: < 3.08 | pKi [2]: 4.35
SMILES: Cc1onc(-c2ccccc2Cl)c1C(=O)Nc1cc2c3c(cccc3c1)C(=O)OC2=O

pKi [3]: < 3.48 | pKi [2]: 5.21
SMILES: Cc1onc(-c2c(F)cccc2Cl)c1C(=O)Nc1cc2c3c(cccc3c1)C(=O)OC2=O

The remaining lines, values behind:

SMILES: O=C1Oc2cccc3cccc1c23
pKi [1]: 5.38 | pKi [2]: < 3.58

SMILES: O=C1Sc2cccc3cccc1c23
pKi [1]: 5.51 | pKi [2]: < 3.71

SMILES: Cc1ccc2c3c(cccc13)C(=O)CC2
pKi [1]: 5.51 | pKi [2]: < 3.53

SMILES: CC1(C)C(=O)c2cccc3cccc(c23)C1=O
pKi [1]: 4.48 | pKi [2]: < 3.23

SMILES: O=C(O)c1ccc2c3c(cccc13)C(=O)OC2=O
pKi [2]: 4.57

SMILES: Nc1ccc(C(=O)Nc2cc3c4c(cccc4c2)C(=O)OC3=O)cc1
pKi [1]: < 3.08 | pKi [2]: 4.67

SMILES: O=C(Nc1cc2c3c(cccc3c1)C(=O)OC2=O)c1cccc(C(F)(F)F)c1
pKi [2]: 5.36

SMILES: O=C(Nc1cc2c3c(cccc3c1)C(=O)OC2=O)c1ccc(Cl)c([N+](=O)[O-])c1
pKi [2]: 5.40

SMILES: O=C(Nc1cc2c3c(cccc3c1)C(=O)OC2=O)c1ccc([N+](=O)[O-])o1
pKi [2]: 5.17

SMILES: O=C(Cc1cccs1)Nc1cc2c3c(cccc3c1)C(=O)OC2=O
pKi [2]: 5.28

SMILES: O=C(Nc1cc2c3c(cccc3c1)C(=O)OC2=O)c1sc2ccccc2c1Cl
pKi [3]: < 4.26 | pKi [1]: < 3.39 | pKi [2]: 5.19

SMILES: O=C1OC(=O)c2cc(NS(=O)(=O)c3cccc([N+](=O)[O-])c3)cc3cccc1c23
pKi [2]: 5.68

SMILES: O=C1OC(=O)c2cc(NS(=O)(=O)c3ccc([N+](=O)[O-])cc3)cc3cccc1c23
pKi [2]: 5.92

SMILES: O=C1OC(=O)c2cc(NS(=O)(=O)c3cccs3)cc3cccc1c23
pKi [2]: 5.66

SMILES: O=C1OC(=O)c2cc(NS(=O)(=O)c3ccc(C(F)(F)F)cc3[N+](=O)[O-])cc3cccc1c23
pKi [2]: 5.89

SMILES: O=C1OC(=O)c2cc(NS(=O)(=O)c3ccc(S(=O)(=O)c4ccccc4)s3)cc3cccc1c23
pKi [2]: 5.92

SMILES: O=C1OC(=O)c2cc(NS(=O)(=O)c3cc(Cl)sc3Cl)cc3cccc1c23
pKi [2]: 5.34

SMILES: O=C1OC(=O)c2cc(NS(=O)(=O)c3cccc4ccccc34)cc3cccc1c23
pKi [2]: 5.96

SMILES: O=C(Nc1cc2c3c(cccc3c1)C(=O)OC2=O)c1ccc2c(c1)OCO2
pKi [2]: 5.13

SMILES: O=C(/C=C/c1cccc(C(F)(F)F)c1)Nc1cc2c3c(cccc3c1)C(=O)OC2=O
pKi [1]: < 3.69 | pKi [2]: 4.97

SMILES: O=C1OC(=O)c2cc(NS(=O)(=O)/C=C/c3ccccc3)cc3cccc1c23
pKi [2]: 6.52

SMILES: O=C1OC(=O)c2cccc3cccc1c23 [1,8-NAPHTHALIC ANHYDRIDE]
pKi [2]: < 3.53

— ChEMBL document CHEMBL2321847, “Ligand-based discovery of N-(1,3-dioxo-1H,3H-benzo[de]isochromen-5-yl)-carboxamide and sulfonamide derivatives as thymidylate synthase A inhibitors” (Bioorg Med Chem Lett, 2013)
